Assay results reported in US20060069132A1, “Azolecarboxamide herbicides” (priority 2004, published 2006).

Legend:
giant foxtail = assay: Test B pre-/postemergence herbicide test; type: in vivo, Setaria faberi; conditions: for Plant response rating, Foxtail, Giant: preemergence; for Foxtail, Giant plant response rating: postemergence, visual rating, scale 0 (no effect) to 100 (complete control)
Outline: (§1)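 Formulation: non-phytotoxic solvent mix with surfactant. Timing: preemergence on seed and postemergence on 2–18 cm plants, applied concurrently. Readout after 13–15 d greenhouse: visual 0–100 control rating against controls.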

pigweed = assay: Test B pre-/postemergence herbicide test; type: in vivo, Amaranthus retroflexus; conditions: for Plant response rating, Pigweed: preemergence; for Pigweed plant response rating: postemergence, visual rating, scale 0 (no effect) to 100 (complete control)
Outline: as §1

barnyardgrass [1] = assay: Test B flooded paddy test; type: in vivo, Echinochloa crus-galli; conditions: 1000 g ai/ha, visual rating, scale 0 to 100 (0 no effect, 100 complete control), 13 to 15 days
Outline: (§2)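 After treating 2-leaf paddy plants or 2–18 cm postemergence plants (1 to 4 leaves) with formulated chemical, researchers kept them in a greenhouse for 13–15 days. Effects were judged visually versus controls: 0 indicates none, 100 total control.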

morningglory = assay: Test B pre-/postemergence herbicide test; type: in vivo, Ipomoea coccinea; conditions: for Plant response rating, Morningglory: preemergence; for Morningglory plant response rating: postemergence, visual rating, scale 0 (no effect) to 100 (complete control)
Outline: (§3)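 Flooded paddy rice and barnyardgrass were treated at the 2-leaf stage; upland plantings received compound either on sown seed or on 1- to 4-leaf seedlings. All were kept 13–15 days in a greenhouse and scored visually, 0–100, relative to untreated plants.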

wild oat = assay: Test B postemergence herbicide test; type: in vivo, Avena fatua; conditions: postemergence, visual rating, scale 0 (no effect) to 100 (complete control)
Outline: (§4)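 Formulated test chemicals went onto postemergence plants measuring 2 to 18 cm, at one to four leaves. For the paddy assay, species had reached two leaves. Scoring took place 13–15 days later by eye, relative to untreated plants, using 0 for no effect up to 100 for full control.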

ducksalad [2] = assay: Test B flooded paddy test; type: in vivo, Heteranthera limosa; conditions: 1000 g ai/ha, visual rating, scale 0 to 100 (0 no effect, 100 complete control), 13 to 15 days
Outline: as §2

large crabgrass = assay: Test B pre-/postemergence herbicide test; type: in vivo, Digitaria sanguinalis; conditions: for Plant response rating, Crabgrass, Large: preemergence; for Crabgrass, Large plant response rating: postemergence, visual rating, scale 0 (no effect) to 100 (complete control)
Outline: as §1

blackgrass = assay: Test B postemergence herbicide test; type: in vivo, Alopecurus myosuroides; conditions: postemergence, visual rating, scale 0 (no effect) to 100 (complete control)
Outline: as §2

barnyardgrass [3] = assay: Test B pre-/postemergence herbicide test; type: in vivo, Echinochloa crus-galli; conditions: for Plant response rating, Barnyardgrass: preemergence; for Barnyardgrass plant response rating: postemergence, visual rating, scale 0 (no effect) to 100 (complete control)
Outline: as §3

rice [4] = assay: Test B flooded paddy test; type: in vivo, Oryza sativa; conditions: 1000 g ai/ha, visual rating, scale 0 to 100 (0 no effect, 100 complete control), 13 to 15 days
Outline: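 Scale 0–100: zero equals no visible effect, 100 complete control, judged by eye relative to controls. Timing: 13 to 15 days in greenhouse post-treatment. Growth stage at spraying: two leaves (paddy) or one to four leaves, 2–18 cm (postemergence).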

corn = assay: Test B pre-/postemergence herbicide test; type: in vivo, Zea mays; conditions: for Plant response rating, Corn: preemergence; for Corn plant response rating: postemergence, visual rating, scale 0 (no effect) to 100 (complete control)
Outline: as §1

Surinam grass = assay: Test B pre-/postemergence herbicide test; type: in vivo, Urochloa decumbens; conditions: for Plant response rating, Surinam Grass: preemergence; for Surinam Grass plant response rating: postemergence, visual rating, scale 0 (no effect) to 100 (complete control)
Outline: as §1

rice [5] = assay: Test C flooded paddy test; type: in vivo, Oryza sativa
Experimental: (§5) At the same time, plants selected from these crop and weed species and also winter barley (Hordeum vulgare L.), blackgrass (Alopecurus myosuroides Huds.), canarygrass (Phalaris minor Retz.), chickweed (Stellaria media (L.) Vill.), downy bromegrass (Bromus tectorum L.), green foxtail (Setaria viridis (L.) Beauv.), Italian ryegrass (Lolium multiflorum Lam.), wheat (Triticum aestivum L.), wild oat (Avenafatua L.) and windgrass (Apera spica-venti (L.) Beauv.) were treated with postemergence applications of some of the test chemicals formulated in the same manner. Plants ranged in height from 2 to 18 cm (1- to 4-leaf stage) for postemergence treatments. Plant species in the flooded paddy test consisted of rice (Oryza sativa), smallflower umbrella sedge (Cyperus difformis L.), ducksalad (Heteranthera limosa (Sw.) Willd.) and barnyardgrass (Echinochloa crus-galli (L.) Beauv.) grown to the 2-leaf stage for testing. Treated plants and controls were maintained in a greenhouse for 12 to 14 days, after which time all species were compared to controls and visually evaluated. Plant response ratings, summarized in Table C, are based on a scale of 0 to 100 where 0 is no effect and 100 is complete control. A dash (-) response means no test result.

cocklebur = assay: Test B pre-/postemergence herbicide test; type: in vivo, Xanthium strumarium; conditions: for Plant response rating, Cocklebur: preemergence; for Cocklebur plant response rating: postemergence, visual rating, scale 0 (no effect) to 100 (complete control)
Outline: as §3

wheat = assay: Test B postemergence herbicide test; type: in vivo, Triticum aestivum; parameters: key to Wheat plant response rating: 0 = no effect, 100 = complete control; conditions: postemergence, visual rating, scale 0 (no effect) to 100 (complete control)
Outline: as §4

barnyardgrass [6] = assay: Test C flooded paddy test; type: in vivo, Echinochloa crus-galli
Experimental: as §5

velvetleaf = assay: Test B pre-/postemergence herbicide test; type: in vivo, Abutilon theophrasti; conditions: for Plant response rating, Velvetleaf: preemergence; for Velvetleaf plant response rating: postemergence, visual rating, scale 0 (no effect) to 100 (complete control)
Outline: as §1

lambsquarters = assay: Test B pre-/postemergence herbicide test; type: in vivo, Chenopodium album; conditions: for Plant response rating, Lambsquarters: preemergence; for Lambsquarters plant response rating: postemergence, visual rating, scale 0 (no effect) to 100 (complete control)
Outline: as §1

[7] = test system: small flower umbrella sedge; assay: Test B flooded paddy test; type: in vivo, Cyperus difformis; conditions: 1000 g ai/ha, visual rating, scale 0 to 100 (0 no effect, 100 complete control), 13 to 15 days
Outline: as §2

[8] = test system: smallflower umbrella sedge; assay: Test C flooded paddy test; type: in vivo, Cyperus difformis
Experimental: as §5

ducksalad [9] = assay: Test C flooded paddy test; type: in vivo, Heteranthera limosa
Experimental: as §5

[10] = 500 g ai/ha, visual rating 0-100, 0 no effect, 100 complete control
[11] = 125 g ai/ha, 0 to 100 scale, 0 is no effect, 100 is complete control
[12] = 62 g ai/ha, scale 0 to 100 (0 no effect, 100 complete control)
[13] = 125 g ai/ha, scale 0 to 100 (0 no effect, 100 complete control)
[14] = 250 g ai/ha, scale of 0 to 100, 0 is no effect, 100 is complete control
[15] = 500 g ai/ha, visual rating after 12 to 14 days, scale 0 to 100 (0 no effect, 100 complete control)

With `CC(=O)c1cccc(NC(=O)c2cc(C(C)(C)C)nn2CC(F)(F)F)c1` [Compound 126] the “Plant response rating, Foxtail, Giant” value (giant foxtail; [10]) was 0, the “Foxtail, Giant plant response rating” value (giant foxtail; 125 g ai/ha) was 20 and the “Foxtail, Giant plant response rating” value (giant foxtail; 500 g ai/ha) was 30. For the same compound, the “Plant response rating, Foxtail, Giant” value (giant foxtail; [11]) was 0, the “Plant response rating, Pigweed” value (pigweed; [10]) was 70 and the “Pigweed plant response rating” value (pigweed; 125 g ai/ha) was 40. The “Pigweed plant response rating” value (pigweed; 500 g ai/ha) was 40, the “Plant response rating, Pigweed” value (pigweed; [11]) was 0 and the “Barnyardgrass plant response rating” value (barnyardgrass [1]) was 10. The “Plant response rating, Morningglory” value (morningglory; [10]) was 20, the “Morningglory plant response rating” value (morningglory; 125 g ai/ha) was 0 and the “Morningglory plant response rating” value (morningglory; 500 g ai/ha) was 30. For the same compound, the “Plant response rating, Morningglory” value (morningglory; [11]) was 0, the “Oat, Wild plant response rating” value (wild oat; 125 g ai/ha) was 30 and the “Oat, Wild plant response rating” value (wild oat; 500 g ai/ha) was 50. For the same compound, the “Ducksalad plant response rating” value (ducksalad [2]) was 80, the “Plant response rating, Crabgrass, Large” value (large crabgrass; [10]) was 30 and the “Crabgrass, Large plant response rating” value (large crabgrass; 125 g ai/ha) was 40. The “Crabgrass, Large plant response rating” value (large crabgrass; 500 g ai/ha) was 40, the “Plant response rating, Crabgrass, Large” value (large crabgrass; [11]) was 0 and the “Blackgrass plant response rating” value (blackgrass; 125 g ai/ha) was 0. For the same compound, the “Blackgrass plant response rating” value (blackgrass; 500 g ai/ha) was 0, the “Plant response rating, Barnyardgrass” value (barnyardgrass [3]; [10]) was 60 and the “Barnyardgrass plant response rating” value (barnyardgrass [3]; 125 g ai/ha) was 0. The “Barnyardgrass plant response rating” value (barnyardgrass [3]; 500 g ai/ha) was 30, the “Plant response rating, Barnyardgrass” value (barnyardgrass [3]; [11]) was 40 and the “Rice plant response rating” value (rice [4]) was 20. For the same compound, the “Plant response rating, Corn” value (corn; [10]) was 0, the “Corn plant response rating” value (corn; 125 g ai/ha) was 0 and the “Corn plant response rating” value (corn; 500 g ai/ha) was 20. For the same compound, the “Plant response rating, Corn” value (corn; [11]) was 0, the “Plant response rating, Surinam Grass” value (Surinam grass; [10]) was 20 and the “Surinam Grass plant response rating” value (Surinam grass; 125 g ai/ha) was 20. The “Surinam Grass plant response rating” value (Surinam grass; 500 g ai/ha) was 20, the “Plant response rating, Surinam Grass” value (Surinam grass; [11]) was 0 and the “Rice plant response rating” value (rice [5]; [12]) was 0. For the same compound, the “Rice plant response rating” value (rice [5]; [13]) was 0, the “Rice plant response rating” value (rice [5]; [14]) was 0 and the “Plant response rating, Rice” value (rice [5]; [15]) was 0. For the same compound, the “Plant response rating, Cocklebur” value (cocklebur; [10]) was 0, the “Cocklebur plant response rating” value (cocklebur; 125 g ai/ha) was 50 and the “Cocklebur plant response rating” value (cocklebur; 500 g ai/ha) was 100. The “Plant response rating, Cocklebur” value (cocklebur; [11]) was 0, the “Wheat plant response rating” value (wheat; 125 g ai/ha) was 0 and the “Wheat plant response rating” value (wheat; 500 g ai/ha) was 0. The “Barnyardgrass plant response rating” value (barnyardgrass [6]; [12]) was 0, the “Barnyardgrass plant response rating” value (barnyardgrass [6]; 125 g ai/ha, scale of 0 to 100, 0 is no effect, 100 is complete control) was 0 and the “Barnyardgrass plant response rating” value (barnyardgrass [6]; [14]) was 20. For the same compound, the “Plant response rating, Barnyardgrass” value (barnyardgrass [6]; [15]) was 25, the “Plant response rating, Velvetleaf” value (velvetleaf; [10]) was 20 and the “Velvetleaf plant response rating” value (velvetleaf; 125 g ai/ha) was 0. The “Velvetleaf plant response rating” value (velvetleaf; 500 g ai/ha) was 40, the “Plant response rating, Velvetleaf” value (velvetleaf; [11]) was 0 and the “Plant response rating, Lambsquarters” value (lambsquarters; [10]) was 90. The “Lambsquarters plant response rating” value (lambsquarters; 125 g ai/ha) was 0, the “Lambsquarters plant response rating” value (lambsquarters; 500 g ai/ha) was 60 and the “Plant response rating, Lambsquarters” value (lambsquarters; [11]) was 0. The “Sedge, Umbrella plant response rating” value [7] was 80, the “Sedge, Umbrella plant response rating” value [8, 12] was 0 and the “Sedge, Umbrella plant response rating” value [8, 13] was 20. The “Sedge, Umbrella plant response rating” value [8, 14] was 20, the “Plant response rating, Sedge, Umbrella” value [8, 15] was 50 and the “Ducksalad plant response rating” value (ducksalad [9]; [12]) was 0. The “Ducksalad plant response rating” value (ducksalad [9]; [13]) was 10, the “Ducksalad plant response rating” value (ducksalad [9]; [14]) was 25 and the “Plant response rating, Ducksalad” value (ducksalad [9]; [15]) was 30.
